Like-named read-outs stand apart in the source and are kept apart here.
Tests used:
[1] = Body weight % difference, diet-induced obese mice dosed PO once a day for 10 days with 3 mg/kg; type: in vivo; settings: diet-induced obese C57BL/6NTac mice
MetAP2 enzyme = biological target: T1, MetAP2 enzyme (Mus musculus, UniProt O08663); experiment: THX1 N-terminal peptide in mouse testes (MetAP2 inhibition in testes) after 10 days PO 3 mg/kg; type: in vivo; settings: mice, PO once a day for 10 days, testes taken 24 hours after last dose
T1 construct: from tissue; host or cells: testes of diet-induced obese C57BL/6NTac mice
Experimental: Diet-induced obese mice, C57BL/6NTac mice, were dosed PO once a day for 10 days with 3 mg/kg of compound 201 (fumagillin), 202, 203, 231 and 233. On day 11, 24 hours after the last dose the mice are sacrificed and the testes are dissected out and frozen. The frozen testes are subsequently homogenized and subjected to endoproteinase Glu-C digestion. The resulting digest mixture is analyzed by LC-MS/MS to quantitate the level of the N-terminal peptide of thioredoxin (Thrx), amino acid 1-6. Thioredoxin is a selective substrate of the MetAP2 enzyme and the degree of unprocessed thioredoxin (amino acid 1-6 rather than the processed des-Met thioredoxin amino acid 2-6) is indicative of the level of MetAP2 inhibition in a given tissue.

recombinant human MetAP2 = biological target: T2, recombinant human MetAP2 (Homo sapiens, UniProt P50579); experiment: MetAP2 enzyme assay (inhibition of recombinant MetAP2, Met-Gly-Met-Met substrate); type: biochemical; settings: 50 nM
T2 construct: made in house; host or cells: High Five insect cells (Bac-to-Bac baculovirus)
Experimental: Exemplary procedures for expression and purification of MetAP2 are shown in Griffith et al. (PNAS (1998) 95(26):15183-15188). Briefly, recombinant His-tagged human MetAP2 is expressed by using a Bac-to-Bac baculovirus expression system (GIBCO/BRL). Recombinant baculovirus stocks are generated and amplified as per the manufacturer's instructions. Protein is harvested 36 hr after baculovirus infection of two 15-cm plates of High Five cells.
The cell pellet are weighed and lysed (in 5 ml/g of wet pellet) in pre-chilled lysis buffer [buffer B+1% Nonidet P-40/1 mM phenymethylsulfonyl fluoride (PMSF)/2 μg/ml leupeptin/2 μg/ml aprotinin/1 μg/ml pepstatin]. The lysate is incubated on ice for 10 min and centrifuged at 10,000×g for 10 min. […] The Talon resin is pelleted by centrifugation at 1,200×g for 3 min and washed with 4×10 ml of buffer B. During the final wash, the resin is slurried into a Bio-Rad Econo column. The 6×His-tagged MetAP2 is eluted with 6 ml of 50 mM imidazole in buffer B, and 0.5 ml fractions are collected. The amount and purity of recombinant MetAP2 is analyzed by the absorbance at 280 nm and SDS/PAGE (10% gel). The fractions containing the highest amounts of MetAP2 are pooled and dialyzed against 3 liters of buffer B overnight before storage at 4° C.
An enzyme assay is performed in a 96-well format as described in Griffith et al. (PNAS (1998) 95(26):15183-15188). […] To begin the enzymatic reaction, Met-Gly-Met-Met is added to a final concentration of 4 mM and incubated at 37° C. The reaction is quenched after 20 min by adding EDTA to a concentration of 10 mM. Released methionine is quantitated as described in Ben-Bassat et al. (J Bacteriol (1987) 169:751-757).
IC50 values are calculated and compounds herein are determined to be active inhibitors of MetAP2, with some having nanomolar activities.

[2] = Cell Based Assay (inhibition range)
[3] = Mice weight loss, 7 day, 1 mg/kg/day oral gavage, diet-induced obese mice; type: in vivo; settings: Mus musculus, 168 h, read-out: Mice Wt Loss 7 day % WL 1 mpk
Source text: Lean body mass is important to normal function in subjects. Substantial loss of lean body mass is not a desirable consequence of a therapy for an overweight or obese subject. A study is undertaken to analyze weight loss with respect to lean body mass.
Mice are divided into two groups, a diet-induced obese group and a lean group (control). For the diet-induced obese group, C57BL/6NTac mice maintained prior to and during the study on a diet containing 60% fat on a kilocalorie basis are further divided into two groups, fifteen mice per group. Average body weight of these diet-induced obese mice is 40 g at the start of the study. For the lean group, fifteen C57BLI6NTac mice are maintained on a diet containing 4.3% by weight fat prior to and during the study. Average body weight of these lean mice is 33 g at the start of the study. Daily food consumption is also recorded.
Compounds of the invention are administered to one of the diet-induced obese mice groups by oral gavage as a solution in 10% DMSO, at dose of 1 mg/kg/day, 7 days. The other diet-induced obese mice group and the lean mice group are not administered anything.

[4] = 1 hr, read-out: MetAP2 Enzyme Assay 1 hr 50 nM
[5] = 2 hr, read-out: MetAP2 Enzyme Assay 2 hr 50 nM
[6] = 4 hr, read-out: MetAP2 Enzyme Assay 4 hr 50 nM
[7] = diet-induced obese C57BL/6NTac mice, oral gavage, 1 mg/kg/day, 7 days

T1 sequence (O08663 whole entry): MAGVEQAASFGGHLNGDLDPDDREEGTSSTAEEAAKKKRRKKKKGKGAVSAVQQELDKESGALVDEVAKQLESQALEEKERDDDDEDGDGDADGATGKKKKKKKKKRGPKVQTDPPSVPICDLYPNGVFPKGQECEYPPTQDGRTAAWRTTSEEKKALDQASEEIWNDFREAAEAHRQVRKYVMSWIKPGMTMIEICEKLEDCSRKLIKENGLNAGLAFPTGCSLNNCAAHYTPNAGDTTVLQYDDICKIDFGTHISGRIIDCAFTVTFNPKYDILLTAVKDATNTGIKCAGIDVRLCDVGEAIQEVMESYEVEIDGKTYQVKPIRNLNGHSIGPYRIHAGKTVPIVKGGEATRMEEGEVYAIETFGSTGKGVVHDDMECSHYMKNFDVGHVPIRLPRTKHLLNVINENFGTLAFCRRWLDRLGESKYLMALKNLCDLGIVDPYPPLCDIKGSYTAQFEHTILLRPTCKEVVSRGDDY
T2 sequence (P50579 whole entry): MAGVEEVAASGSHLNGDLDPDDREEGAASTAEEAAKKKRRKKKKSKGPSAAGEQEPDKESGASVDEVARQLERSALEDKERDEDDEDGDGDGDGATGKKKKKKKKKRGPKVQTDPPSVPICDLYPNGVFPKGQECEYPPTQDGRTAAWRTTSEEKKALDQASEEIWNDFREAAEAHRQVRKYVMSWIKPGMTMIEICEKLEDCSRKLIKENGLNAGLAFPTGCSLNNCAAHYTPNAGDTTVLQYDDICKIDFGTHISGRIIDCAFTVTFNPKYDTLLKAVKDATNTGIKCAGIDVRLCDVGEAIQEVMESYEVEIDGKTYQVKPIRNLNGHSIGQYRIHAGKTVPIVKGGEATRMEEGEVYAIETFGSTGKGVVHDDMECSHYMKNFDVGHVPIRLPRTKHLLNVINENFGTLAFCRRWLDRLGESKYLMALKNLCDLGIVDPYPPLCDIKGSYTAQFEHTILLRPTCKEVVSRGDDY

With `COC(=O)CCCCCCCCC(=O)O[C@@H]1CC[C@]2(CO2)[C@@H]([C@@]2(C)O[C@@H]2CC=C(C)C)[C@@H]1OC` [compound 205] the “weight loss over 10 days of treatment” value [1] was “robust weight loss” and the “inhibition of the enzyme (MetAP2) in the testes, by THX1 N-terminal peptide” value (from here on “inhibition of the enzyme (MetAP2)”) (MetAP2 enzyme) was “No inhibition”.
`CO[C@H]1[C@H]([C@@]2(C)O[C@@H]2CC=C(C)C)[C@]2(CCC1(F)F)CO2` [Example 17] showed an inhibition at 0.05 µM (recombinant human MetAP2; [4]) of 29%, an inhibition at 0.05 µM (recombinant human MetAP2; [5]) of 44% and an inhibition at 0.05 µM (recombinant human MetAP2; [6]) of 40%. The IC50 ([2]; in uM) was > 1 µM and the change in vivo at 1 mg/kg ([3]; po) was 0.1%.
In the case of `CO[C@@H]1[C@H](OC(=O)NCCC2CCCN2C)CC[C@]2(CO2)[C@H]1[C@@]1(C)O[C@@H]1CC=C(C)C` (stereo partly drawn) [Example 29], the inhibition at 0.05 µM (recombinant human MetAP2; [6]) is reported as 63%, the IC50 ([2]; cells printed in nM) is reported as < 0.01 µM and the change in vivo at 1 mg/kg [3, 7] is reported as 5.7%.
In the case of `CO[C@@H]1[C@H](OC(=O)CCCCCCCCC(=O)O)CC[C@]2(CO2)[C@H]1[C@@]1(C)O[C@@H]1CC=C(C)C` [compound 206], the “weight loss over 10 days of treatment” value [1] is reported as “robust weight loss” and the “inhibition of the enzyme (MetAP2)” value (MetAP2 enzyme) is reported as “No inhibition”.
For `CCCCCCCCCCS[C@@H]1CC[C@]2(CO2)[C@@H]([C@@]2(C)O[C@@H]2CC=C(C)C)[C@@H]1OC` [Example 18], the inhibition at 0.05 µM (recombinant human MetAP2; [4]) was 0%, the inhibition at 0.05 µM (recombinant human MetAP2; [5]) was 0% and the inhibition at 0.05 µM (recombinant human MetAP2; [6]) was 0%. The IC50 ([2]; in uM) was > 1 µM and the change in vivo at 1 mg/kg [3, 7] was 0%.
For `CO[C@@H]1[C@H](OC(=O)N[C@@H](C(=O)NCCC2CCCN2C)C(C)C)CC[C@]2(CO2)[C@H]1[C@@]1(C)O[C@@H]1CC=C(C)C` (stereo partly drawn) [Example 33], the inhibition at 0.05 µM (recombinant human MetAP2; [6]) was 43%, the IC50 ([2]; cells printed in nM) was < 0.01 µM and the change in vivo at 1 mg/kg [3, 7] was 2.1%.
Compound `COC(=O)CCCCCCCCCO[C@@H]1CC[C@]2(CO2)[C@@H]([C@@]2(C)O[C@@H]2CC=C(C)C)[C@@H]1OC` [Example 19] has an inhibition at 0.05 µM (recombinant human MetAP2; [4]) of 0%, an inhibition at 0.05 µM (recombinant human MetAP2; [5]) of 0% and an inhibition at 0.05 µM (recombinant human MetAP2; [6]) of 0%. The IC50 ([2]; in uM) was > 1 µM and the change in vivo at 1 mg/kg [3, 7] was -0.9%.
`COC(=O)CCCCCCCCC(=O)O[C@@H]1CC[C@]2(CO2)[C@@H]([C@@]2(C)O[C@@H]2CC=C(C)C)[C@@H]1OC` [Example 4] gave an inhibition at 0.05 µM (recombinant human MetAP2; [4]) of 46%, an inhibition at 0.05 µM (recombinant human MetAP2; [5]) of 58% and an inhibition at 0.05 µM (recombinant human MetAP2; [6]) of 94%. It also gave an IC50 ([2]; cells printed in nM) of 0.01 to 0.1 µM and a change in vivo at 1 mg/kg [3, 7] of 12.5%.
In the case of `CCCCCCCCCCC(=O)O[C@@H]1CC[C@]2(CO2)[C@@H]([C@@]2(C)O[C@@H]2CC=C(C)C)[C@@H]1OC` [compound 216], the “weight loss over 10 days of treatment” value [1] is reported as “robust weight loss” and the “inhibition of the enzyme (MetAP2)” value (MetAP2 enzyme) is reported as “No inhibition”.
Work on `CCCCCCCCCCC(=O)O[C@@H]1CC[C@]2(CO2)[C@@H]([C@@]2(C)O[C@@H]2CC=C(C)C)[C@@H]1OC` [Example 12] yielded an inhibition at 0.05 µM (recombinant human MetAP2; [4]) of 0%, an inhibition at 0.05 µM (recombinant human MetAP2; [5]) of 5% and an inhibition at 0.05 µM (recombinant human MetAP2; [6]) of 29%. The IC50 ([2]; in uM) was 0.1 to 1 µM and the change in vivo at 1 mg/kg [3, 7] was 8.4%.
In the case of `CO[C@@H]1[C@H](OC(=O)/C=C/C=C/C=C/C=C/C(=O)O)CC[C@]2(CO2)[C@H]1[C@@]1(C)O[C@@H]1CC=C(C)C` [compound 201, fumagillin, reference compound], the “weight loss over 10 days of treatment” value [1] is reported as “robust weight loss” and the “inhibition of the enzyme (MetAP2)” value (MetAP2 enzyme) is reported as “No inhibition”.

Reference: US10259796B2, “Oxaspiro[2.5]octane derivatives and analogs” (Zafgen, Inc., priority 2011, dated 2019)
